From the NIST ThermoML archive (doi:10.1016/j.fluid.2014.12.037)
Numbers after ± are expanded uncertainties.

Assays:
[1] = Crystal; DTA
[2] = Molar enthalpy of transition or fusion; details: Crystal; DSC

Q: Which results are given for N=C(N)N.O=[N+]([O-])O [guanidine nitrate]?
A: Normal melting temperature [1]: 214.02 ± 2 °C; Molar enthalpy of transition or fusion [2]: 6.04 ± 0.146 kcal/mol
